Measurements taken from PubChem BioAssay (NCI).
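Briefly, cells in 96-well plates were exposed to five compound concentrations for 48 h, and endpoints were estimated by linear interpolation. At the TGI there is no net growth.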

Columns and labels:
Experiment in all cases: growth of human tumour cells (NCI), 48 h
[1] = tested on: 786-0 renal
[2] = tested on: A498 renal
[3] = tested on: A549 NSCLC
[4] = tested on: ACHN renal
[5] = tested on: BT-549 breast
[6] = tested on: CAKI-1 renal
[7] = tested on: CCRF-CEM leukemia
[8] = tested on: COLO 205 colon
[9] = tested on: DU-145 prostate
[10] = tested on: EKVX NSCLC
[11] = tested on: HCC-2998 colon
[12] = tested on: HCT-116 colon
[13] = tested on: HCT-15 colon
[14] = tested on: HL-60(TB) leukemia
[15] = tested on: HOP-62 NSCLC
[16] = tested on: HOP-92 NSCLC
[17] = tested on: HS 578T breast
[18] = tested on: HT29 colon
[19] = tested on: IGROV1 ovarian
[20] = tested on: K-562 leukemia
[21] = tested on: KM12 colon
[22] = tested on: LOX IMVI melanoma
[23] = tested on: M14 melanoma
[24] = tested on: MALME-3M melanoma
[25] = tested on: MCF7 breast
[26] = tested on: MDA-MB-231 breast
[27] = tested on: MDA-MB-435
[28] = tested on: MDA-N
[29] = tested on: MOLT-4 leukemia
[30] = tested on: NCI-H226 lung
[31] = tested on: NCI-H23 lung
[32] = tested on: NCI-H460 lung
[33] = tested on: NCI-H522 lung
[34] = tested on: NCI/ADR-RES ovarian
[35] = tested on: OVCAR-3 ovarian
[36] = tested on: OVCAR-4 ovarian
[37] = tested on: OVCAR-5 ovarian
[38] = tested on: OVCAR-8 ovarian
[39] = tested on: PC-3 prostate
[40] = tested on: RPMI-8226 leukemia
[41] = tested on: RXF 393 renal
[42] = tested on: SF-268 CNS
[43] = tested on: SF-295 CNS
[44] = tested on: SF-539 CNS
[45] = tested on: SK-MEL-2 melanoma
[46] = tested on: SK-MEL-28 melanoma
[47] = tested on: SK-MEL-5 melanoma
[48] = tested on: SK-OV-3 ovarian
[49] = tested on: SN12C renal
[50] = tested on: SNB-19 CNS
[51] = tested on: SR leukemia
[52] = tested on: SW-620 colon
[53] = tested on: T-47D breast
[54] = tested on: TK-10 renal
[55] = tested on: U251 CNS
[56] = tested on: UACC-257 melanoma
[57] = tested on: UACC-62 melanoma
[58] = tested on: UO-31 renal
[59] = tested on: SNB-75 CNS

Compound: COC(=O)[C@]12CC[C@H]3CN(C(=O)OCc4ccccc4)[C@H]([C@H]31)[C@H](c1ccco1)N2S(=O)(=O)c1ccc(C)cc1
- TGI [1]: 37.6 µM
- TGI [2]: 79.7 µM
- TGI [3]: > 100 µM
- TGI [4]: > 100 µM
- TGI [5]: 35.6 µM
- TGI [6]: 89.4 µM
- TGI [7]: > 100 µM
- TGI [8]: 38.4 µM
- TGI [9]: > 100 µM
- TGI [10]: > 100 µM
- TGI [11]: 34.5 µM
- TGI [12]: 29.2 µM
- TGI [13]: 30.8 µM
- TGI [14]: 58.7 µM
- TGI [15]: 74.2 µM
- TGI [16]: 56.1 µM
- TGI [17]: > 100 µM
- TGI [18]: 58.7 µM
- TGI [19]: 57.1 µM
- TGI [20]: > 100 µM
- TGI [21]: 38.5 µM
- TGI [22]: 32.3 µM
- TGI [23]: 44.6 µM
- TGI [24]: 38.3 µM
- TGI [25]: 42 µM
- TGI [26]: > 100 µM
- TGI [27]: 67.3 µM
- TGI [28]: 50.4 µM
- TGI [29]: > 100 µM
- TGI [30]: 58.7 µM
- TGI [31]: 48.5 µM
- TGI [32]: 87.8 µM
- TGI [33]: 45.7 µM
- TGI [34]: 61.2 µM
- TGI [35]: 40.4 µM
- TGI [36]: > 100 µM
- TGI [37]: > 100 µM
- TGI [38]: > 100 µM
- TGI [39]: > 100 µM
- TGI [40]: 35.9 µM
- TGI [41]: 38.1 µM
- TGI [42]: 59.3 µM
- TGI [43]: 81.9 µM
- TGI [44]: > 100 µM
- TGI [45]: 49.3 µM
- TGI [46]: > 100 µM
- TGI [47]: 33.3 µM
- TGI [48]: > 100 µM
- TGI [49]: 39 µM
- TGI [50]: > 100 µM
- TGI [51]: 81 µM
- TGI [52]: > 100 µM
- TGI [53]: 93 µM
- TGI [54]: 90.2 µM
- TGI [55]: 71.4 µM
- TGI [56]: 50.9 µM
- TGI [57]: 36.1 µM
- TGI [58]: 46.6 µM

Compound: CN(C)c1ccc(C=C2N=C(c3ccccc3)N(c3cc(C(=O)c4ccccc4)ccc3N3C(=O)/C(=C/c4ccc(N(C)C)cc4)N=C3c3ccccc3)C2=O)cc1
- TGI [1]: > 100 µM
- TGI [2]: > 100 µM
- TGI [3]: > 100 µM
- TGI [4]: > 100 µM
- TGI [5]: > 100 µM
- TGI [6]: > 100 µM
- TGI [7]: > 100 µM
- TGI [8]: 19.4 µM
- TGI [9]: > 100 µM
- TGI [10]: > 100 µM
- TGI [11]: 22.7 µM
- TGI [12]: 95.4 µM
- TGI [13]: > 100 µM
- TGI [14]: 37.6 µM
- TGI [15]: > 100 µM
- TGI [16]: > 100 µM
- TGI [17]: > 100 µM
- TGI [18]: 24.7 µM
- TGI [19]: > 100 µM
- TGI [20]: > 100 µM
- TGI [21]: > 100 µM
- TGI [22]: > 100 µM
- TGI [23]: > 100 µM
- TGI [25]: > 100 µM
- TGI [26]: > 100 µM
- TGI [27]: 4.42 µM
- TGI [28]: 6.03 µM
- TGI [29]: 14.9 µM
- TGI [32]: > 100 µM
- TGI [34]: 85.1 µM
- TGI [35]: 5.57 µM
- TGI [36]: > 100 µM
- TGI [37]: > 100 µM
- TGI [38]: 73.6 µM
- TGI [39]: 28.2 µM
- TGI [40]: 8.86 µM
- TGI [42]: > 100 µM
- TGI [43]: 27.1 µM
- TGI [44]: 6.05 µM
- TGI [45]: 21.4 µM
- TGI [46]: > 100 µM
- TGI [47]: > 100 µM
- TGI [48]: > 100 µM
- TGI [49]: > 100 µM
- TGI [50]: > 100 µM
- TGI [59]: 78.9 µM
- TGI [51]: > 100 µM
- TGI [52]: > 100 µM
- TGI [53]: > 100 µM
- TGI [54]: > 100 µM
- TGI [55]: 29.5 µM
- TGI [56]: > 100 µM
- TGI [57]: > 100 µM
- TGI [58]: > 100 µM

Compound: COc1ccc2cc3c4cc5c(cc4cc[n+]3cc2c1OC)OCO5
- TGI [1]: > 100 µM
- TGI [2]: > 100 µM
- TGI [3]: > 100 µM
- TGI [4]: > 100 µM
- TGI [5]: 7.83 µM
- TGI [6]: > 100 µM
- TGI [7]: 35.5 µM
- TGI [8]: 6.73 µM
- TGI [9]: > 100 µM
- TGI [10]: > 100 µM
- TGI [11]: > 55.5 µM
- TGI [12]: > 100 µM
- TGI [13]: > 100 µM
- TGI [14]: > 65.5 µM
- TGI [15]: 64.3 µM
- TGI [16]: > 90.4 µM
- TGI [17]: 31.3 µM
- TGI [18]: > 100 µM
- TGI [19]: > 32.7 µM
- TGI [20]: > 100 µM
- TGI [21]: 12.2 µM
- TGI [22]: > 100 µM
- TGI [23]: 68 µM
- TGI [24]: 15.1 µM
- TGI [25]: > 96.2 µM
- TGI [26]: > 100 µM
- TGI [27]: 22.9 µM
- TGI [28]: 28.5 µM
- TGI [29]: > 100 µM
- TGI [30]: > 100 µM
- TGI [31]: 65.1 µM
- TGI [32]: > 100 µM
- TGI [33]: 21.5 µM
- TGI [34]: > 100 µM
- TGI [35]: 21.4 µM
- TGI [36]: > 100 µM
- TGI [37]: > 100 µM
- TGI [38]: > 94.8 µM
- TGI [39]: > 100 µM
- TGI [40]: 35.1 µM
- TGI [41]: > 69.6 µM
- TGI [42]: 18.5 µM
- TGI [43]: > 93 µM
- TGI [44]: > 58.5 µM
- TGI [45]: > 57.8 µM
- TGI [46]: 19.4 µM
- TGI [47]: 14.1 µM
- TGI [48]: > 84.9 µM
- TGI [49]: 54.2 µM
- TGI [50]: 39.6 µM
- TGI [59]: 67 µM
- TGI [52]: > 62.2 µM
- TGI [53]: > 100 µM
- TGI [54]: 83.2 µM
- TGI [55]: 15.3 µM
- TGI [56]: 30.4 µM
- TGI [57]: 27.9 µM
- TGI [58]: > 100 µM
